Test results as given in paper PMC4879640 (Frontiers in Microbiology, 2016).

System: T1, H6-PnpA (PNP 4-monooxygenase)
T1 construct: N-terminal His6 tag, pET-28a (NdeI-XhoI), E. coli Rosetta(DE3)pLysS; gene pnpA of the pnpABA1CDEF cluster (not pnpA1)
Type: biochemical, Burkholderia sp. SJ98
Settings: read-out: apparent Km

Cc1cc(O)ccc1[N+](=O)[O-] [3-methyl-4-nitrophenol]
Km: 20.3 ± 2.54 µM
